According to patent US20200087732A1, “IDENTIFICATION OF DRUGS TARGETING NON-GENETIC DRUG TOLERANCE PROGRAMS IN CANCER” (ETH ZURICH, priority 2016, published 2020):

Key:
Assay type in all cases: cell-based
[1] = tested on: genes associated with stemness/EMT; assay: qPCR of selected genes associated with stemness/EMT in A375-P cells; conditions: FIG. 1H, 1 μM PLX4720, 0.5 μM AZD6244 or combination of both, 24 h
Procedure: (A) A375-P cells were treated with PLX4720 (BRAFi) or DMSO for 6 h, RNA was isolated and RNA-Seq was performed. […] (B) Bar graphs showing the five top pathways with significant enrichment of the analyzed DEGs. Longer bars indicate stronger significance. […] Data shown represent mean of independent biological triplicates ±SEM. (E) Western blot analysis of the same experiment as shown in (D). As key player in the stemness signature, SOX2 levels were assessed. P-ERK1/2 levels served as positive treatment controls. Total ERK1/2 levels served as loading control. (F) A375-P cells were treated with 1 μM PLX4720, 0.5 μM AZD6244 (MEK1/2 inhibitor) or 0.01% DMSO for the indicated times and SOX2 levels were assessed by Western blot analysis. […] (G) A375-P cells were treated with 1 μM PLX4720 (BRAFi), 0.5 μM AZD6244 (MEKi), a combination of both drugs or 0.01% DMSO for the indicated times and SOX2 levels were assessed by Western blot analysis. […] For all Western blots, individual time points were assessed in at least two independent experiments. Representative data is shown.

SOX2 = SOX2 levels by Western blot after MAPKi treatment; conditions: A375-P cells, indicated times
Procedure: (A) A375-P cells were treated with PLX4720 (BRAFi) or DMSO for 6 h, RNA was isolated and RNA-Seq was performed. […] Differentially expressed genes (DEGs) selected for pathway analysis are represented by red and blue dots depending on the direction of the transcriptional change (red genes are induced upon PLX4720, blue genes are repressed upon PLX4720). (B) Bar graphs showing the five top pathways with significant enrichment of the analyzed DEGs. Longer bars indicate stronger significance. (C) Top deregulated genes upon treatment with PLX4720 (left column). Top genes induced and repressed by PLX4720 are shown in separate lists. (D) Indicated cell lines were treated with 1 μM PLX4720 or 0.01% DMSO (0 h) for the indicated times and the expressional changes of selected genes associated with stemness/EMT were confirmed by qPCR. […] Data shown represent mean of independent biological triplicates ±SEM. (E) Western blot analysis of the same experiment as shown in (D). As key player in the stemness signature, SOX2 levels were assessed. P-ERK1/2 levels served as positive treatment controls. Total ERK1/2 levels served as loading control. (F) A375-P cells were treated with 1 μM PLX4720, 0.5 μM AZD6244 (MEK1/2 inhibitor) or 0.01% DMSO for the indicated times and SOX2 levels were assessed by Western blot analysis. […] (G) A375-P cells were treated with 1 μM PLX4720 (BRAFi), 0.5 μM AZD6244 (MEKi), a combination of both drugs or 0.01% DMSO for the indicated times and SOX2 levels were assessed by Western blot analysis. […] (H) A375-P cells were treated with 1 μM PLX4720 (BRAFi), 0.5 μM AZD6244 (MEKi), a combination of both drugs or 0.01% DMSO for the 24 h and the expressional changes of selected genes associated with stemness/EMT were confirmed by qPCR. […] For all Western blots, individual time points were assessed in at least two independent experiments. Representative data is shown.

S6K and BAD = assay: Survival signaling by Western blot in A375-P/pTRIPZ cells; conditions: FIG. 2G, PLX4720 for 48 h
Procedure: (§1) (A) A375-P cells were transfected with 100 nM siRNA targeting SOX2 or a negative control siRNA. Cells were then treated with PLX4720 (BRAFi) or DMSO for 48 h. 2 h before harvesting, cells were pulsed with 3 uM EdU to label cycling cells. EdU-positive cells were detected using flow cytometry. […] Representative data is shown. (B) Quantification of experiment (A). For each condition, percentage of cycling cells upon siRNA knockdown of SOX2 was normalized to the negative control siRNA. Data shown represent mean of independent biological triplicates ±SEM. (C) A375-P cells stably transduced with pTRIPZ-SOX2 vector were treated with the indicated concentrations of doxycycline for three days or with 1 μM PLX4720 (PLX) for 24 h. SOX2 overexpression was confirmed by Western blot analysis. Lamin A served as loading control. Individual concentrations were assessed in at least two independent experiments. Representative results are shown. (D) A375-P/pTRIPZ-control or -SOX2 cells were pre-treated with 0 ng/ml (negative control) or with 50 ng/ml doxycycline for 24 h, and subsequently with DMSO or PLX4720 for an additional 48 h. 2 h before harvesting, cells were pulsed with 3 uM EdU to label cycling cells. EdU-positive cells were detected using flow cytometry. […] Cell viability was assessed by PrestoBlue assay and IC50 values were calculated. […] Survival signaling was assessed by Western blot. […]

[2] = tested on: A375-P/pTRIPZ-control or -SOX2 cells; assay: Cell viability by PrestoBlue assay; conditions: FIG. 2E-F; pTRIPZ-SOX2 cells with 50 ng/ml doxycycline versus 0 ng/ml; serial dilutions of PLX4720 for four days
Procedure: as §1

[3] = FIG. 1F, 1 μM PLX4720 or 0.5 μM AZD6244
[4] = FIG. 1G, 1 μM PLX4720, 0.5 μM AZD6244 or combination of both

Structure (SMILES) | transcript levels of selected stemness/EMT genes (qPCR) [1] | SOX2 levels (Western blot) (SOX2; [3]) | SOX2 levels (Western blot) (SOX2; [4]) | survival signaling via S6K and BAD (Western blot) (S6K and BAD) | drug sensitivity (survival curve, cell viability) [2]
Cn1cnc2c(F)c(Nc3ccc(Br)cc3Cl)c(C(=O)NOCCO)cc21 [AZD6244] | comparable effects on transcript levels | induce similar SOX2 levels | comparable effects on SOX2 levels |  | 
CCCS(=O)(=O)Nc1ccc(F)c(C(=O)c2c[nH]c3ncc(Cl)cc23)c1F [PLX4720] | comparable effects on transcript levels | induce similar SOX2 levels | comparable effects on SOX2 levels | repressed | decreased drug sensitivity when SOX2 is overexpressed
